{"source": "patent USRE37828E1", "about": "“Treatment and prevention of adhesions” (Hadasit Medical Research Services & Development Co., Ltd., priority 1997, dated 2002)", "key": {"adhesions": {"tested_on": "adhesions", "conditions": "infertility surgery, gynecological surgeons; cited from earlier work"}, "[1]": {"conditions": "ascribed to effects on many collagen types and Fe++ ion-binding enzymes; cited from earlier work"}, "peritoneal adhesions": {"tested_on": "peritoneal adhesions", "conditions": "rats, cited from earlier work"}, "abdominal adhesions [2]": {"tested_on": "abdominal adhesions", "experiment": "Post-surgical abdominal adhesions in rats, Halofuginone in the diet: number and severity of adhesions", "format": "in vivo", "parameters": "key to Adhesion: 0=no adhesions; I=a thin, filmy, easily separated adhesion; II=several thin adhesions; III=a thick, broad adhesion; IV=several thick adhesions", "conditions": "for Adhesion: one rat per row", "procedure": "(§1) The experiments were performed as follows. First, the abdomen of the rats was shaved and prepared with iodine and alcohol. The abdominal cavity was entered through a mid-line incision. The small intestine was scraped from the duodenum down to from about 9 to about 10 cm from the cecum, until capillary bleeding occurred. To avoid drying, Hartman's solution at about 37° C. was occasionally dripped on the intestine. After replacement of the intestine into the abdominal cavity, the abdomen was closed in two layers with continuous 00 chromic catgut suture. […] Res., Vol 17, p. 254-258, 1985]. After 21 days, the rats were sacrificed and the sutures were reopened to determine the level of adhesion formation and to take biopsies of the tissue.\nIn the double-blind procedure, adhesions were classified according to the following grading: 0=no adhesions; I=a thin, filmy, easily separated adhesion; II=several thin adhesions; III=a thick, broad adhesion and IV=several thick adhesions. Clearly, 0 is the least severe and IV is the most severe grade.\n(§2) In the second experiment, Halofuginone was administered in the diet of two groups of rats at a concentration of 5 mg/kg dry feed for 4 days before surgery, as a pretreatment. Two other groups of rats were fed a normal diet and served as control groups. One of the groups of rats fed Halofuginone and one control group the underwent surgery as described above. Halofuginone treatment was continued for 21 days following surgery, after which the rats were sacrificed and the number and severity of adhesions were determined, and body weight was measured."}, "alkaline phosphatase": {"tested_on": "alkaline phosphatase", "experiment": "Alkaline phosphatase activity in tissue sections after abdominal surgery", "format": "in vivo", "conditions": "rats with surgery injected with Halofuginone, 21 days; FIG. 3C", "procedure": "For hybridization with the genetic probe, the sections were deparafinized in xylene, rehydrated through a graded series of ethanol solutions, rinsed in distilled water for 5 minutes and then incubated in 2×SSC [What is the recipe?] at 70° C. for 30 minutes. The sections were then rinsed in distilled water and treated with pronase, 0.125 mb/ml in 50 mM Tris-HCl, 5 mM EDTA, pH 7.5 for 10 minutes. After digestion, the slides were rinsed with distilled water, post-fixed in 10% formalin in PBS and blocked in 0.2% glycine. After blocking, the slides were rinsed in distilled water, rapidly dehydrated through graded ethanol solutions and air-dried for several hours. Before hybridization, the 1600 bp rat collagen α1(I) insert was cut out from the original plasmid, pUC18, and inserted into the pSafyre plasmid. The sections were then hybridized with this probe after digoxigenin-labelling. Alkaline phosphatase activity was detected in the sections as previously described [Knopov, V., et al., Bone, Vol 16 p. 329S-334S, 1995].\nAfter 21 days, tissue samples were taken from all three groups of rats and histological sections were prepared as described in Example 1, and alkaline phosphatase activity was measured as described in Example 1."}, "skin wound [3]": {"tested_on": "skin wound", "experiment": "Wound strength (bursting point of skin strips, Instron tensiometer)", "format": "in vivo, rats", "conditions": "irradiated or non-irradiated animals, one or six injections of Halofuginone; FIG. 5", "procedure": "Wound strength was assessed by preparing rats substantially as described above, except that one group of rats (not irradiated) only received one injection of Halofuginone after wounding. The strength of wounds was measured as follows. First, a square of skin which was approximately 20 mm long and 16 mm wide, and which included the main part of the wound, was excised from sacrificed rats. Next, the skin was cut, perpendicular to the wound, to yield 7 strips of skin, each of which was 2 mm wide. The skin strips were secured between paper reinforcement frames and loaded on an Instron tensiometer for stretching at a constant rate of 25 mm/min. The bursting point was then recorded."}, "collagen type I [4]": {"tested_on": "collagen type I", "conditions": "cited from earlier work"}, "[5]": {"parameters": "species or system rats", "conditions": "rat, in vivo, ip", "procedure": "(§3) The experiment was performed as follows. Abdominal adhesions were induced in two groups of rats as described above in Example 1. […] One group of the rats which underwent surgery received an i.p. injection of Halofuginone every day after the operation for 21 days. The rats were dosed according to body weight, with 1 ug of Halofuginone given per 25 g of body weight. The other group of rats which underwent surgery received saline injections for 21 days.\nTwo different tests were performed to assess the effect of Halofuginone on the number and severity of adhesions in rats which underwent surgery. […] The experimental method was as follows. For the first test, three groups of rats were prepared as described above in Example 2. At the end of 21 days, the rats were weighed and the number and severity of adhesions were determined according to a double-blind procedure."}, "[6]": {"tested_on": "adhesions between tendon and its sheath", "conditions": "chickens, local treatment through a catheter; cited from earlier work"}, "skin wound [7]": {"tested_on": "skin wound", "experiment": "Wound healing and collagen content of skin wounds in irradiated and non-irradiated mice", "format": "in vivo, C3H mice", "conditions": "Halofuginone 1 μg/mouse i.p. every other day, 14 days", "procedure": "The experiment was conducted as follows. First C3H, defined-flora, pathogen-free female mice of 12-14 weeks of age were anesthetized with 60 mg/kg sodium phenobarbital. The mice were then shaved. One group of mice was then irradiated as follows. First, a flap of skin about 40 mm long and about 20 mm wide was pulled through a slit in the lead cover of an irradiation jig and secured with tape, so that only the flap of skin was exposed. This exposed skin was then irradiated by using a 175 kVp/20 mA orthovoltage X-ray source, with a 2 mm Cu filter at a dose rate of 1.0 Gy/min. A standard dose of 18 Gy was delivered.\nAll of the mice were then wounded by making a fill depth incision, about 25 mm long, in the skin along the midline of the lower back. Note that for the irradiated animals, the wound was made within the irradiated area, immediately following irradiation. For all mice, the incision was immediately closed by 3-4 metallic wound closure clips which were removed 2 days later.\nAfter wounding, the mice were injected i.p every other day, either with 1 μg/mouse Halofuginone or with saline as a control. After 14 days, 2 days following the last injection, the mice were sacrificed and skin samples were collected into phosphate-buffered saline (PBS) and fixed in 4% paraformaldehyde in PBS at 4° C. […]"}, "collagen type I [8]": {"tested_on": "collagen type I", "experiment": "Collagen α1(I) gene expression and collagen type I content in surgically insulted abdominal tissue (in situ hybridization, Sirius red)", "format": "in vivo", "conditions": "rats with surgery, Halofuginone i.p. daily for 21 days", "procedure": "as §1\nThe tissue was sectioned so that histological studies could be performed. Briefly, the tissue samples were collected into phosphate-buffered saline (PBS) and fixed overnight in 4% paraformaldehyde in PBS at 4° C. Serial 5 μm sections were prepared after the samples had been dehydrated in graded ethanol solutions, cleared in chloroform and embedded in Paraplast. Differential staining of collagenous and non-collagenous proteins were performed with 0.1% Sirius red and 0.1% fast green as a counter-stain in picric acid. This procedure stains collagen red [Gascon-Barre, M., et al., J. Histochem. Cytochem., Vol 37, p. 377-381, 1989].\nFor hybridization with the genetic probe, the sections were deparafinized in xylene, rehydrated through a graded series of ethanol solutions, rinsed in distilled water for 5 minutes and then incubated in 2×SSC [What is the recipe?] at 70° C. for 30 minutes. The sections were then rinsed in distilled water and treated with pronase, 0.125 mb/ml in 50 mM Tris-HCl, 5 mM EDTA, pH 7.5 for 10 minutes. […] Alkaline phosphatase activity was detected in the sections as previously described [Knopov, V., et al., Bone, Vol 16 p. […]\nAfter 21 days, tissue samples were taken for histological analysis as described above. Both collagen type I content of the tissue, and the level of collagen a(1)I gene expression were measured."}, "[9]": {"parameters": "species or system rats", "conditions": "rat, in vivo", "procedure": "as §2"}, "abdominal adhesions [10]": {"tested_on": "abdominal adhesions", "experiment": "Post-surgical abdominal adhesions in rats, Halofuginone i.p. injection: number and severity of adhesions", "format": "in vivo", "parameters": "key to Adhesion Score: 0=no adhesions; I=a thin, filmy, easily separated adhesion; II=several thin adhesions; III=a thick, broad adhesion; IV=several thick adhesions", "procedure": "as §1\nas §3, with “The other group of rats which underwent surgery received saline injections for 21 days.” left out\nTwo different tests were performed to assess the effect of Halofuginone on the number and severity of adhesions in rats which underwent surgery. […] At the end of 21 days, the rats were weighed and the number and severity of adhesions were determined according to a double-blind procedure. […]"}}, "note": "Several values for one entry are separate records, joined by “and”; a condition that tells them apart may be missing. Identical values can stand only once.", "data": [{"molecule": "dextran", "values": [{"measurement": "adhesive prevention", "setting": "adhesions", "result": "little success"}]}, {"molecule": "Oc1cc(O)c2c(c1)O[C@H](c1ccc(O)c(O)c1)[C@@H](O)C2", "note": "[cianidanol]", "values": [{"measurement": "toxicity", "setting": "[1]", "result": "toxic"}, {"measurement": "number of post-surgical adhesions", "setting": "peritoneal adhesions", "result": "decrease"}]}, {"molecule": "O=C(CC1NCCCC1O)Cn1cnc2cc(Br)c(Cl)cc2c1=O", "note": "(centres unmarked) [Halofuginone]", "values": [{"measurement": "Adhesion", "setting": "abdominal adhesions [2]; Group 2: rats with surgery, Halofuginone 5 mg/kg dry feed from 4 days before to 21 days after surgery", "result": "0-1 (3×) and 1 (3×) and 1-2 (2×) and 0 (2×)"}, {"measurement": "Adhesion", "setting": "abdominal adhesions [2]; Group 3: rats without surgery, Halofuginone 5 mg/kg dry feed", "result": 0}, {"measurement": "number of rats with an adhesion", "setting": "abdominal adhesions [2]; Halofuginone in diet, rats with surgery, compared to untreated operated rats", "result": "smaller number"}, {"measurement": "alkaline phosphatase activity", "setting": "alkaline phosphatase", "result": "substantially no alkaline phosphatase activity"}, {"measurement": "wound strength", "setting": "skin wound [3]", "result": "did not reduce wound strength"}, {"measurement": "inhibition of synthesis of collagen type I versus other collagens (α2(I), type II, type III, type X)", "setting": "collagen type I [4]", "result": "only inhibits the synthesis of collagen type I"}, {"measurement": "reduction in weight gain", "setting": "[5]", "result": "more pronounced"}, {"measurement": "prevention of adhesions between tendon and sheath", "setting": "[6]", "result": "effective"}, {"measurement": "collagen content of the wound", "setting": "skin wound [7]; irradiated (18 Gy) mouse, FIG. 4H", "result": "significantly lowered"}, {"measurement": "wound healing", "setting": "skin wound [7]; irradiated and non-irradiated mice", "result": "healed"}, {"measurement": "damage to the villi", "setting": "collagen type I [8]", "result": "much less damage"}, {"measurement": "collagen α1(I) gene expression", "setting": "collagen type I [8]; FIG. 2C", "result": "low levels"}, {"measurement": "collagen type I content", "setting": "collagen type I [8]; FIG. 2F", "result": "low level"}, {"measurement": "weight gain", "setting": "[9]", "result": "substantially similar"}, {"measurement": "Adhesion Score", "setting": "abdominal adhesions [10]; Group 2: rats with surgery, Halofuginone i.p. 1 ug per 25 g body weight daily for 21 days, one rat per row", "result": "0 (3×) and 0-1 and 2"}, {"measurement": "number and severity of adhesions", "setting": "abdominal adhesions [10]; Halofuginone-treated (i.p.) compared to non-treated rats after surgery", "result": "sharply reduced"}]}, {"molecule": "povidone-iodine", "values": [{"measurement": "reduction of the number of peritoneal adhesions after surgery", "setting": "peritoneal adhesions; effect ascribed to an anti-microbial effect", "result": 35, "unit": "%"}]}]}
